Literature values as cited in patent publication US20080031951A1, “Compositions and methods for the inhibition of phospholipase A2” (priority 2005, published 2008).

Key:
ear edema = settings: mice, tetracenoylphorbol-13-acetate induced
mGIID = mGIID (Mus musculus, UniProt Q9WVF6)
pleurisy = settings: rat, carageenin-induced pleurisy
mGV = mGV (Mus musculus, UniProt P97391)
mGX = mGX (Mus musculus, UniProt Q9QXX3)
mGIIA = mGIIA (Mus musculus, UniProt P31482)
mGIIE = mGIIE (Mus musculus, UniProt Q9QUL3)
colitis = settings: rats, dextran sulfate- and trinitrobenzene sulfonic acid-induced
hGIIA [1] = molecular target: T1, hGIIA (Homo sapiens, UniProt P14555); settings: more potent than LY311727
hyperalgesia = settings: lumbar intrathecal administration, 3 rat models of hyperalgesia
[2] = tested on: release of thromboxane A2 triggered by exogenously added hGIIA; settings: guinea pig BAL fluids containing macrophages, eosinophils and epithelial cells
sPLA2 activity = settings: guinea pig model of ARDS
hGIIA [3] = molecular target: T1, hGIIA; parameters: host or cells: transgenic mice overexpressing hGIIA, blood; settings: intravenous administration, transgenic mice overexpressing hGIIA
toxoplasmosis = settings: injection, murine toxoplasmosis model
[4] = molecular target: group X sPLA2 / M-type receptor; settings: mouse cells expressing the M-type receptor; read-out: IC50, block of binding of group X sPLA2 to M-type receptor
septic shock = settings: LPS injection, wild-type mice
[5] = tested on: PGE2 production in rat gastric epithelial cells; settings: induced by TGF-α and IL-1, rat gastric epithelial cells
[6] = molecular target: T2, porcine pancreatic group IB sPLA2 / M-type receptor (Sus scrofa, UniProt P00592); settings: mouse cells expressing the M-type receptor; read-out: IC50, block of binding of porcine pancreatic group IB sPLA2 to M-type receptor
T2 construct: host or cells: mouse cells expressing the M-type receptor

[7] = tested on: intestine injury following ischemia and reperfusion; settings: rats, oral administration
sepsis and organ failure = settings: humans with sepsis and organ failure

T1 sequence (P14555 21-144): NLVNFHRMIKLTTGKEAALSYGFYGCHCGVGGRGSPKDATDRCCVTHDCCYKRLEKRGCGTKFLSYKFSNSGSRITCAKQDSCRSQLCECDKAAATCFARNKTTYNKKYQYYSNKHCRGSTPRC
Chain of mGIID (Q9WVF6 20-144): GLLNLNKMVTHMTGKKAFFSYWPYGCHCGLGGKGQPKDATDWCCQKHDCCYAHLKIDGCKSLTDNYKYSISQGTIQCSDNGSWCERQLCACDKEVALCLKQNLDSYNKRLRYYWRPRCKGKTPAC
Chain of mGV (P97391 21-137): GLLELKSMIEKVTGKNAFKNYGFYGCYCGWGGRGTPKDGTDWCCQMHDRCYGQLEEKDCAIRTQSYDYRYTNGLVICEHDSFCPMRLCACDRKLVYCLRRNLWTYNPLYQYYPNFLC
Chain of mGIIE (Q9QUL3 20-142): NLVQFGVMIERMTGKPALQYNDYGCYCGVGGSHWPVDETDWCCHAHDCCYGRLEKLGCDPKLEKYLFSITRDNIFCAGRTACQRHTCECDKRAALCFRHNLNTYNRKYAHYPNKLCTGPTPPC
T2 sequence (P00592 23-146): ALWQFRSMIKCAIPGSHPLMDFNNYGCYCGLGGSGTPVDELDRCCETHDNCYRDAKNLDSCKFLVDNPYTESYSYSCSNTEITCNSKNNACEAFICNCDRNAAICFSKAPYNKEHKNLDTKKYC
Chain of mGIIA (P31482 22-146): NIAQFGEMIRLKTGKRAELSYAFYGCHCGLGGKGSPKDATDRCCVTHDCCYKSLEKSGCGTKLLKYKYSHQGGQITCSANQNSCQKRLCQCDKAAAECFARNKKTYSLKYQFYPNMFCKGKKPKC
Chain of mGX (Q9QXX3 29-151): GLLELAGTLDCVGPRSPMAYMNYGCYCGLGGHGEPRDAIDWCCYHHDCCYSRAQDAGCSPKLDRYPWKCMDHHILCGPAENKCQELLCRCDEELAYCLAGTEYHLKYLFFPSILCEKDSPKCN

CCCCCCCCCCCC(=O)c1c(O)c(C(=O)CCCCCCCCCCC)c(O)c(C2CC(c3ccc(O)cc3)Oc3cc(O)ccc32)c1O (stereo not shown) [YM-26734]
ear edema (ear edema): reduced
inhibition of mGIID (mGIID): potent inhibitor
accumulation of exudate fluid and leukocytes (pleurisy): significantly decreased
inhibition of mGV (mGV): potent inhibitor
inhibition of mGX (mGX): potent inhibitor
inhibition of mGIIA (mGIIA): potent inhibitor
inhibition of mGIIE (mGIIE): potent inhibitor

CCc1c(C(=O)C(N)=O)c2c(OCC(=O)OC)cccc2n1Cc1ccccc1 [LY333013]
protection from colitis (colitis): protected rats
effect on rheumatoid arthritis pathology, intravenous (rheumatoid arthritis; administered intravenously): positive impacts on the pathology
effect on rheumatoid arthritis pathology, oral (rheumatoid arthritis; orally distributed, patients with rheumatoid arthritis): significant reduction of the pathology during the first week of trial, but the benefits were lost thereafter
tolerability (asthma; in these patients): well tolerated
benefit on inhaled allergen challenge (asthma; subjects with asthma): failed to show any benefit

Cc1c(C(=O)C(N)=O)c2c(OCC(=O)O)cccc2n1Cc1ccccc1-c1ccccc1 [Me-indoxam]
potency to inhibit hGIIA relative to LY311727 (hGIIA [1]): about 20 fold

CCc1c(CC(N)=O)c2cc(OCCCP(=O)(O)O)ccc2n1Cc1ccccc1 [LY311727]
inflammation-related symptoms (hyperalgesia): attenuated all the inflammation-related symptoms observed
inhibition of release of thromboxane A2 [2]: able to inhibit
inhibition of sPLA2 activity induced by lipopolysaccharides (sPLA2 activity): could also inhibit
PLA2 catalytic activity in blood (hGIIA [3]): loss of PLA2 catalytic activity in blood
mortality (toxoplasmosis): earlier mortality

CCc1c(C(=O)C(N)=O)c2c(OCC(=O)O)cccn2c1Cc1ccccc1-c1ccccc1 [indoxam]
IC50 [4]: 900 nM
septic shock (septic shock): attenuated
PGE2 production [5]: inhibited
IC50 [6]: 130 nM

O=C(O)CC[C@@H](Cc1ccc(OCc2ccccc2)cc1)NC(=O)CCCCCCc1ccccc1 [5-(4-benzyloxyphenyl)-4s-(7-phenylheptanoylamino)-pentanoic acid]
protection of intestine from ischemia and reperfusion injury [7]: preserved rats intestine from injury
protection from colitis (colitis): protected rats

CCc1c(C(=O)C(N)=O)c2c(OCC(=O)[O-])cccc2n1Cc1ccccc1.[Na+] [S-5920/LY315920Na]
clinical outcome versus placebo (sepsis and organ failure): no significant differences
